What all share (assay): growth of human tumour cells (NCI), 48 h
Assay [1] relates to HOP-62 NSCLC.
Assay [2] relates to DU-145 prostate.
The subject of assay [3] is SK-MEL-28 melanoma.
In assay [4] the test system is A498 renal.
Assay [5] concerns UO-31 renal.
Assay [6] deals with MOLT-4 leukemia.
The subject of assay [7] is SR leukemia.
The subject of assay [8] is NCI-H522 lung.

Molecules are shown by their SMILES.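 How tested: cells in 96-well plates exposed to compound for 48 hours at five concentrations. Abbreviation: GI50, concentration required for 50% inhibition of growth. TGI: concentration producing complete growth inhibition.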

For `CC(C)[C@@]12C[C@@H](OC(=O)C3CO3)[C@@](C)(O1)[C@@H]1CC[C@@H](C)[C@H]1[C@@H]2OC(=O)/C=C/c1ccccc1` (stereo partly drawn), the GI50 is 21.2 µM in assay [1]; 26.4 µM in assay [2]; 18.4 µM in assay [3]; 2.05 µM in assay [4]; 1.76 µM in assay [5]; 24.7 µM in assay [6]. In addition, the GI50 in assay [7] is 29.8 µM; in assay [8] it was 17.4 µM. The TGI was greater than 100 µM in assay [1]; 72.9 µM in assay [2]; 37.9 µM in assay [3]; 4.91 µM in assay [4]; 5.57 µM in assay [5]; greater than 100 µM in assay [6]. In addition, the TGI was greater than 100 µM in assay [7] and 37.3 µM in assay [8].
Regarding `O=C(Nc1ccc(Cl)c(C(F)(F)F)c1)Nc1ccc(-c2cccnc2)cc1N1CCC(CO)CC1`, the GI50 in assay [1] was 2.02 µM; in assay [2], 3.74 µM; in assay [3], 2.22 µM; in assay [4], 1.26 µM; in assay [5], 2.43 µM; in assay [6], 2.57 µM. Further, the results for the GI50 in assay [7] and in assay [8] were 3.49 µM and 1.73 µM, respectively. For the same compound, the TGI is 5.09 µM in assay [1]; greater than 100 µM in assay [2]; 5.71 µM in assay [3]; 4.42 µM in assay [4]; greater than 100 µM in assay [5]; greater than 100 µM in assay [6]. The TGI in assay [7] was greater than 100 µM; in assay [8], 3.43 µM.
`COc1cc2c(/C=C3\C(=O)N(C)c4ccccc43)c[nH]c2cc1C`: the GI50 was 2.23 µM in assay [1]; 6.77 µM in assay [2]; greater than 22.4 µM in assay [3]; 4.96 µM in assay [4]; 11.5 µM in assay [5]; 5.83 µM in assay [6]. Besides, the GI50 in assay [7] is 2.07 µM; in assay [8], 8.82 µM. Also, the TGI in assay [1] is 39.3 µM; in assay [2], greater than 66.3 µM; in assay [3], greater than 100 µM; in assay [4], 48.9 µM; in assay [5], greater than 62 µM; in assay [6], greater than 64 µM. The TGI was 14.2 µM in assay [7] and greater than 87.5 µM in assay [8].
`ClCc1ccccc1Cn1cnc2nc(Cl)nc(Cl)c21`: the GI50 in assay [1] is 2.35 µM; in assay [2] it was 0.548 µM; in assay [3], 0.582 µM; in assay [4], 2.13 µM; in assay [5], 1.26 µM; in assay [6], 1.49 µM. The GI50 is 0.64 µM in assay [7] and 2.94 µM in assay [8]. Further, the TGI in assay [1] is 4.4 µM; in assay [2], 1.33 µM; in assay [4], 4.83 µM; in assay [5] it was 2.52 µM; in assay [6] it was 4.09 µM; in assay [7], 5.66 µM. The compound also registered a TGI in assay [8] of 7.17 µM.
Take `CN1CCN(C)C1c1ccc(C2N(C)CCN2C)cc1`: the GI50 is 82.8 µM in assay [1]; 30.2 µM in assay [2]; 67.8 µM in assay [3]; 14.4 µM in assay [4]; greater than 100 µM in assay [5]; 26.1 µM in assay [6]. Besides, the GI50 was 28.5 µM in assay [7] and greater than 100 µM in assay [8]. Further, the TGI in assay [1] is greater than 100 µM; in assay [2] it was greater than 100 µM; in assay [3], greater than 100 µM; in assay [4], greater than 100 µM; in assay [5], greater than 100 µM; in assay [6], 62 µM. Moreover, the TGI in assay [7] and in assay [8] was greater than 100 µM throughout.
`OCc1ccc(-c2nc(-c3ccc4c(c3)OCO4)c(-c3ccccn3)[nH]2)cc1`: the GI50 in assay [1] is greater than 25 µM; in assay [2] it was greater than 25 µM; in assay [3] it was greater than 25 µM; in assay [4] it was greater than 25 µM; in assay [5] it was greater than 23.6 µM; in assay [6], greater than 25 µM. Further, the GI50 in assay [7] and in assay [8] was greater than 25 µM in each case. Further, the TGI in assay [1], in assay [2], in assay [3], in assay [4], in assay [5] and in assay [6] was greater than 25 µM each time. Also, the TGI in assay [7] and in assay [8] was greater than 25 µM throughout.
Consider `OCC1OC(N2C=C(c3nc4ccccc4s3)C3C=CC=CC32)C(O)C(O)C1O` (stereo not drawn), for which the GI50 in assay [1] is 20.8 µM; in assay [2] it was 20.6 µM; in assay [3] it was 19.2 µM; in assay [4] it was 16 µM; in assay [5], 24.8 µM; in assay [6], 36.5 µM. For the same compound, the GI50 in assay [7] is 15.9 µM; in assay [8], greater than 50 µM. The TGI in assay [1] was greater than 50 µM; in assay [2], greater than 50 µM; in assay [3], greater than 50 µM; in assay [4] it was 38.3 µM; in assay [5] it was greater than 50 µM; in assay [6], greater than 50 µM. Besides, the TGI in assay [7] and in assay [8] was greater than 50 µM each time.
For the compound `CCOc1ccc(-c2nc3ccc(-c4nc5ccc(N6CCN(C)CC6)cc5[nH]4)cc3[nH]2)cc1`, the GI50 in assay [1] was 0.456 µM; in assay [2], 0.402 µM; in assay [3], 0.77 µM; in assay [4] it was 0.223 µM; in assay [5], 2.54 µM; in assay [6], 0.299 µM. For the same compound, the GI50 was 0.311 µM in assay [7] and 0.09 µM in assay [8]. Also, the TGI in assay [1] amounted to 1.6 µM; in assay [2], 1.57 µM; in assay [3], 2.13 µM; in assay [4], 1.05 µM; in assay [5], 7.7 µM; in assay [6] it was 1.81 µM. Moreover, the figures for the TGI in assay [7] and in assay [8] were 2.67 µM and 0.442 µM, respectively.
Regarding `Nc1nc(Sc2ccc([N+](=O)[O-])c3nonc23)c2ncn(C3OC(CO)C(O)C3O)c2n1` (stereo not drawn), the GI50 is 0.531 µM in assay [1]; 0.554 µM in assay [2]; 11.7 µM in assay [3]; 2.28 µM in assay [4]; 0.902 µM in assay [5]; 0.325 µM in assay [6]. The GI50 in assay [7] is 0.113 µM; in assay [8] it was 0.64 µM. The TGI in assay [1] was greater than 100 µM; in assay [2] it was 27.3 µM; in assay [3], 26.6 µM; in assay [4] it was 14 µM; in assay [5] it was 43.6 µM; in assay [6], greater than 37.5 µM. The TGI in assay [7] is greater than 41.2 µM; in assay [8] it was 14.2 µM.

The record behind these values is PubChem BioAssay (NCI).
